Experimental findings from patent US5874426A, “Cyclic amine derivatives of substituted quinoxaline 2,3-diones as glutamate receptor antagonists” (Warner-Lambert Company, priority 1995, dated 1999) are described below.

One assay has as its target AMPA receptors. Kind of assay: AMPA receptor binding affinity (Honoré et al.). The settings on record: Table 1.
The target in assay [1] is kainate site (non-NMDA receptor). Kind of assay: kainate site (non-NMDA receptor) binding affinity (London and Coyle). The settings on record: Table 1.
The next assay relates to CF-1 strain mice. Kind of assay: maximal electroshock assay in CF-1 strain mice, corneal electrodes. The format is in vivo. The settings on record: ten mice; IV; 30 seconds; 0.5 min. The source says: The graph is the […] of mice protected versus the time in minutes.

Take `Cc1c([N+](=O)[O-])cc2[nH]c(=O)c(=O)[nH]c2c1CN1CCOCC1` [6-Methyl-5-morpholin-4-ylmethyl-7-nitro-1,4-dihydroquinoxaline-2,3-dione]: the IC50 (in general, the concentration that gives 50% inhibition) on AMPA receptors is 572 nM. Besides, the “IC50 KA” value in assay [1] amounted to 9083 nM.

`Cc1c([N+](=O)[O-])cc2[nH]c(=O)c(=O)[nH]c2c1CN1C(C)CCC1C` (stereo not drawn) [5-(2,5-Dimethyl-pyrrolidin-1-ylmethyl)-6-methyl-7-nitro-1,4-dihydroquinoxaline-2,3-dione] registered a 50% inhibitory concentration (IC50) on AMPA receptors of 740 nM. The “IC50 KA” value in assay [1] was 2840 nM.

For “1,4,7,8,9,10-hexahydro-7-methyl-6-nitro-pyrido[3,4-f]quinoxaline-2,3-dione [PNQX]”, the “ED50 maximal electroshock dose-response” value with CF-1 strain mice was found to be 0.5 mg/kg.

In the case of `Cc1c([N+](=O)[O-])cc2[nH]c(=O)c(=O)[nH]c2c1CN1CCCCCC1` [5-Azepan-1-ylmethyl-6-methyl-7-nitro-1,4-dihydroqinoxaline-2,3-dione], the IC50 at AMPA receptors came to 899 nM. Further, the “IC50 KA” value in assay [1] turned out to be 3695 nM.

The molecule `Cc1c([N+](=O)[O-])cc2[nH]c(=O)c(=O)[nH]c2c1CN1CCC(C)CC1` [6-Methyl-5-(4-methyl-piperidin-1-ylmethyl)-7-nitro-1,4-dihydroquinoxaline-2,3-dione] showed an IC50 on AMPA receptors of 420 nM. Besides, the “IC50 KA” value in assay [1] was found to be 9950 nM.

In turn, `Cc1c([N+](=O)[O-])cc2[nH]c(=O)c(=O)[nH]c2c1CN1CCCCC1` [6-Methyl-7-nitro-5-piperidin-1-ylmethyl-1,4-dihydroquinoxaline-2,3-dione] had an IC50 on AMPA receptors of 290 nM. Further, the “IC50 KA” value in assay [1] came out at 4110 nM.

Turning to `Cc1c([N+](=O)[O-])cc2[nH]c(=O)c(=O)[nH]c2c1CN1CCCC1` [6-Methyl-5-pyrrolidin-1-ylmethyl-7-nitro-1,4-dihydroquinoxaline-2,3-dione], at AMPA receptors, the IC50 amounted to 220 nM. Also, the “IC50 KA” value in assay [1] amounted to 4520 nM.

With `Cc1c([N+](=O)[O-])cc2[nH]c(=O)c(=O)[nH]c2c1CN1CCC2(CCCCC2)CC1` [5-(3-Azaspiro [5.5]undec-3-ylmethyl)-6-methyl-7-nitro-1,4-dihydroquinoxaline-2,3-dione], the IC50 at AMPA receptors worked out at 486 nM. In addition, the “IC50 KA” value in assay [1] turned out to be 6540 nM.

With `Cc1c([N+](=O)[O-])cc2[nH]c(=O)c(=O)[nH]c2c1CN1CCN(C)CC1` [6-Methyl-5-(4-methyl-piperazin-1-ylmethyl)-7-nitro-1,4-dihydroquinoxaline-2,3-dione], the IC50 on AMPA receptors turned out to be 2470 nM. Further, the “IC50 KA” value in assay [1] is 13200 nM.

`Cc1c([N+](=O)[O-])cc2[nH]c(=O)c(=O)[nH]c2c1CN1CCCCC1C` (stereo not drawn) [6-Methyl-5-(2-methyl-piperidin-1-ylmethyl)-7-nitro-1,4-dihydroquinoxaline-2,3-dione] yielded a half-maximal inhibitory concentration (IC50) at AMPA receptors of 490 nM. Besides, the “IC50 KA” value in assay [1] stood at 8280 nM.

On to `Cc1c([N+](=O)[O-])cc2[nH]c(=O)c(=O)[nH]c2c1CN1CCCC1C` (stereo not drawn) [6-Methyl-5-(2-methyl-pyrrolidin-1-ylmethyl)-7-nitro-1,4-dihydroquinoxaline-2,3-dione], for which the IC50 at AMPA receptors came to 370 nM. Further, in assay [1], the “IC50 KA” value turned out to be 6110 nM.
